Measured values from article PMC5862592, “CDK8/19 inhibition induces premature G1/S transition and ATR-dependent cell death in prostate cancer cells” (Oncotarget, 2018).
Like-named read-outs stand apart in the source and are kept apart here.

Tests used:
[1] = target: CDK8 (Homo sapiens, UniProt P49336); test: TR-FRET ligand displacement assay (Kinase Tracer […], Tb-anti-GST); also KINOMEscan […] inhibition at […]; type: binding; set-up: GST-CDK8; with Cyclin C
[2] = target: VRK2 (Homo sapiens, UniProt Q86Y07); test: biochemical; set-up: KINOMEscan active site-directed competition binding assay (DiscoveRx), 456 kinases, per cent of control at 300 nM; details: read-out: Percent of Control (%)
In short: (§1)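 Single-concentration selectivity screen: compound 300 nmol/L; 456-kinase panel; active-site-directed competition binding read-out.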

[3] = target: MARK3 (Homo sapiens, UniProt P27448); test: biochemical; set-up: KINOMEscan active site-directed competition binding assay (DiscoveRx), 456 kinases, per cent of control at 300 nM; details: read-out: Percent of Control (%)
In short: as §1

[4] = target: MAP4K4 (Homo sapiens, UniProt O95819); test: biochemical; set-up: KINOMEscan active site-directed competition binding assay (DiscoveRx), 456 kinases, per cent of control at 300 nM; details: read-out: Percent of Control (%)
Sequence of MAP4K4 (O95819 whole entry): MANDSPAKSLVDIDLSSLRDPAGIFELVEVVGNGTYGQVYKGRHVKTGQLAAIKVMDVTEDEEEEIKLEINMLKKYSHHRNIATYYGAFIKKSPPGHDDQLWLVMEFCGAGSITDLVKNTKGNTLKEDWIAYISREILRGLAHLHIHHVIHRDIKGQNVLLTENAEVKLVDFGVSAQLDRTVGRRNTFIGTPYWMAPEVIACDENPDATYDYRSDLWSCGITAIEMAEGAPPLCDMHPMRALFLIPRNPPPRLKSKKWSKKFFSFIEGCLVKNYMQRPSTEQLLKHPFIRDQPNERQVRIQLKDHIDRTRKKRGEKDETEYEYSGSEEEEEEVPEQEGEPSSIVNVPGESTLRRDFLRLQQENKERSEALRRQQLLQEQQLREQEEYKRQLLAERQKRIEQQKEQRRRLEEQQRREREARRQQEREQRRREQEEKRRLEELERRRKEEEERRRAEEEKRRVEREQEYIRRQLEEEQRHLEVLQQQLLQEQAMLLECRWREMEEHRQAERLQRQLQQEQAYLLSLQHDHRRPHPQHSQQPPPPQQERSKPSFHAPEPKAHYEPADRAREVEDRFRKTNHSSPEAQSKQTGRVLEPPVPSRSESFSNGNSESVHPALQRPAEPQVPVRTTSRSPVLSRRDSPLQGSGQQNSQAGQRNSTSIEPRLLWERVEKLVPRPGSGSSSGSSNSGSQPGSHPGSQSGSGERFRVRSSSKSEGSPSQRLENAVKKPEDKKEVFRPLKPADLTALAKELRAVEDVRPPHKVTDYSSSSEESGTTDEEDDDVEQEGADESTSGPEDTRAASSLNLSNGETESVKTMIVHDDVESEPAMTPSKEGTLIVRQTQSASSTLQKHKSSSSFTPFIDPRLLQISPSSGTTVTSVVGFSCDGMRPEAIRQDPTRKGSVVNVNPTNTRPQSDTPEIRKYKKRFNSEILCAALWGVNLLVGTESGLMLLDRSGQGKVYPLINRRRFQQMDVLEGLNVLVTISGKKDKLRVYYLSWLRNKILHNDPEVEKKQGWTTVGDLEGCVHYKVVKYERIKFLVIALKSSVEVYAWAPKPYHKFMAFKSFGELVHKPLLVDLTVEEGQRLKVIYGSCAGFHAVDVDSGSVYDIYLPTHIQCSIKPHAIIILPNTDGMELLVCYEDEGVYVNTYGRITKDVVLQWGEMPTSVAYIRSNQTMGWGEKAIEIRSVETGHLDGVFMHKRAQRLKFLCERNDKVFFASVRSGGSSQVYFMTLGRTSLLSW
In short: as §1

[5] = target: T1, PYK2 (Homo sapiens, UniProt Q14289); test: biochemical; set-up: KINOMEscan active site-directed competition binding assay (DiscoveRx), 456 kinases, per cent of control at 300 nM; details: read-out: Percent of Control (%)
T1 construct: gene PTK2B
In short: as §1

[6] = target: T2, MRCKA (Homo sapiens, UniProt Q5VT25); test: biochemical; set-up: KINOMEscan active site-directed competition binding assay (DiscoveRx), 456 kinases, per cent of control at 300 nM; details: read-out: Percent of Control (%)
T2 construct: gene CDC42BPA
In short: as §1

[7] = target: NEK10 (Homo sapiens, UniProt Q6ZWH5); test: biochemical; set-up: KINOMEscan active site-directed competition binding assay (DiscoveRx), 456 kinases, per cent of control at 300 nM; details: read-out: Percent of Control (%)
In short: as §1

[8] = target: T3, HPK1 (Homo sapiens, UniProt Q92918); test: biochemical; set-up: KINOMEscan active site-directed competition binding assay (DiscoveRx), 456 kinases, per cent of control at 300 nM; details: read-out: Percent of Control (%)
T3 construct: gene MAP4K1
In short: as §1

[9] = target: MAPKAPK5 (Homo sapiens, UniProt Q8IW41); test: biochemical; set-up: KINOMEscan active site-directed competition binding assay (DiscoveRx), 456 kinases, per cent of control at 300 nM; details: read-out: Percent of Control (%)
In short: as §1

[10] = target: T4, DRAK2 (Homo sapiens, UniProt O94768); test: biochemical; set-up: KINOMEscan active site-directed competition binding assay (DiscoveRx), 456 kinases, per cent of control at 300 nM; details: read-out: Percent of Control (%)
T4 construct: gene STK17B
In short: as §1

[11] = target: T5, ABL1(H396P)-phosphorylated (Homo sapiens, UniProt P00519, H396P); test: biochemical; set-up: KINOMEscan active site-directed competition binding assay (DiscoveRx), 456 kinases, per cent of control at 300 nM; details: read-out: Percent of Control (%)
T5 construct: phosphorylated
In short: as §1

[12] = target: RIPK2 (Homo sapiens, UniProt O43353); test: biochemical; set-up: KINOMEscan active site-directed competition binding assay (DiscoveRx), 456 kinases, per cent of control at 300 nM; details: read-out: Percent of Control (%)
In short: as §1

[13] = target: BRAF (Homo sapiens, UniProt P15056); test: biochemical; set-up: KINOMEscan active site-directed competition binding assay (DiscoveRx), 456 kinases, per cent of control at 300 nM; details: read-out: Percent of Control (%)
Sequence of BRAF (P15056 whole entry): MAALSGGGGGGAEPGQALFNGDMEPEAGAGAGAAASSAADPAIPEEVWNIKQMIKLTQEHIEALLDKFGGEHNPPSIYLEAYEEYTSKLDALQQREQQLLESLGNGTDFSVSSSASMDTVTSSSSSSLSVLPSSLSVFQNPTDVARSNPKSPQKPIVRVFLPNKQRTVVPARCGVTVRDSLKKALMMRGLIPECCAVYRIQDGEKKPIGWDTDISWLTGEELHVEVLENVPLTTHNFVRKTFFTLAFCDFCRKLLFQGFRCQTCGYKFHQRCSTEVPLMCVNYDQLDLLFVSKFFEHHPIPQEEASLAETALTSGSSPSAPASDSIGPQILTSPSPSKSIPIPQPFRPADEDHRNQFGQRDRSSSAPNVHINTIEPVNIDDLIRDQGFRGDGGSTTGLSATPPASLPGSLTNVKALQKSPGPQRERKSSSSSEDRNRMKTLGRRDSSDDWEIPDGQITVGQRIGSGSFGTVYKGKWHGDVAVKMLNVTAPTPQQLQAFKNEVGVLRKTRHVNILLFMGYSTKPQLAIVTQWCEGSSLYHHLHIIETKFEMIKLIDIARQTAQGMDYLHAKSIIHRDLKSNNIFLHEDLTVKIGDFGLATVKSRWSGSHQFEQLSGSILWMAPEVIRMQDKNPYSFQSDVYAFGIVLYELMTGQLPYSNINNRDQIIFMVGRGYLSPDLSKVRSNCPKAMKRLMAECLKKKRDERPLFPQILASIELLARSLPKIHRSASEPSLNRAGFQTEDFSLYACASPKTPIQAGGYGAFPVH
In short: as §1

[14] = target: T6, MLK2 (Homo sapiens, UniProt Q02779); test: biochemical; set-up: KINOMEscan active site-directed competition binding assay (DiscoveRx), 456 kinases, per cent of control at 300 nM; details: read-out: Percent of Control (%)
T6 construct: gene MAP3K10
T6 sequence (Q02779 whole entry): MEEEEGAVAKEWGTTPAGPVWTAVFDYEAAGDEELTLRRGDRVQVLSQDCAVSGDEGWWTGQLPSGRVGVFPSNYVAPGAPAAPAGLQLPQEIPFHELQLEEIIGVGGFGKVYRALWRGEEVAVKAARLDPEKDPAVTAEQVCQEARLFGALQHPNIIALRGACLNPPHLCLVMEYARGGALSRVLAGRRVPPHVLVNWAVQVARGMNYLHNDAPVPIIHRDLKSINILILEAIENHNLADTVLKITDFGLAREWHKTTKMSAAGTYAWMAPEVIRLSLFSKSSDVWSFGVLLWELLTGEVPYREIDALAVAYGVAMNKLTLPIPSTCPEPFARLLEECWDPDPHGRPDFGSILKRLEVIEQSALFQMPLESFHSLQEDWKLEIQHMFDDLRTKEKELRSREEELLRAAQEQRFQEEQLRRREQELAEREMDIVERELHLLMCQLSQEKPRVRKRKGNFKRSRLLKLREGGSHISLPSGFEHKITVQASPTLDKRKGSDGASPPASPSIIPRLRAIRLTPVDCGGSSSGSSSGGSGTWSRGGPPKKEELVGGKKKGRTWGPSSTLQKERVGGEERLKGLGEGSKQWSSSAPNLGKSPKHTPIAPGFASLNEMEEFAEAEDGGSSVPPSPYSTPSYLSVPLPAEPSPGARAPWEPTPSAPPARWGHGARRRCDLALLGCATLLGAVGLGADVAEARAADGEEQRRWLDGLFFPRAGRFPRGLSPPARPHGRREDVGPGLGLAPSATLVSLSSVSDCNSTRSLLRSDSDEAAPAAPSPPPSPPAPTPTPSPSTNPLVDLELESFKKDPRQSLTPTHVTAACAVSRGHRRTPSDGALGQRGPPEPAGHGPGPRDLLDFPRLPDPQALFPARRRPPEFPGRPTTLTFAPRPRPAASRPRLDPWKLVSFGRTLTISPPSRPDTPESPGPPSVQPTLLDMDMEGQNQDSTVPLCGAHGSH
In short: as §1

[15] = target: T7, JAK3(JH1domain-catalytic) (Homo sapiens, UniProt P52333); test: biochemical; set-up: KINOMEscan active site-directed competition binding assay (DiscoveRx), 456 kinases, per cent of control at 300 nM; details: read-out: Percent of Control (%)
T7 construct: JH1domain-catalytic
T7 sequence (P52333 whole entry): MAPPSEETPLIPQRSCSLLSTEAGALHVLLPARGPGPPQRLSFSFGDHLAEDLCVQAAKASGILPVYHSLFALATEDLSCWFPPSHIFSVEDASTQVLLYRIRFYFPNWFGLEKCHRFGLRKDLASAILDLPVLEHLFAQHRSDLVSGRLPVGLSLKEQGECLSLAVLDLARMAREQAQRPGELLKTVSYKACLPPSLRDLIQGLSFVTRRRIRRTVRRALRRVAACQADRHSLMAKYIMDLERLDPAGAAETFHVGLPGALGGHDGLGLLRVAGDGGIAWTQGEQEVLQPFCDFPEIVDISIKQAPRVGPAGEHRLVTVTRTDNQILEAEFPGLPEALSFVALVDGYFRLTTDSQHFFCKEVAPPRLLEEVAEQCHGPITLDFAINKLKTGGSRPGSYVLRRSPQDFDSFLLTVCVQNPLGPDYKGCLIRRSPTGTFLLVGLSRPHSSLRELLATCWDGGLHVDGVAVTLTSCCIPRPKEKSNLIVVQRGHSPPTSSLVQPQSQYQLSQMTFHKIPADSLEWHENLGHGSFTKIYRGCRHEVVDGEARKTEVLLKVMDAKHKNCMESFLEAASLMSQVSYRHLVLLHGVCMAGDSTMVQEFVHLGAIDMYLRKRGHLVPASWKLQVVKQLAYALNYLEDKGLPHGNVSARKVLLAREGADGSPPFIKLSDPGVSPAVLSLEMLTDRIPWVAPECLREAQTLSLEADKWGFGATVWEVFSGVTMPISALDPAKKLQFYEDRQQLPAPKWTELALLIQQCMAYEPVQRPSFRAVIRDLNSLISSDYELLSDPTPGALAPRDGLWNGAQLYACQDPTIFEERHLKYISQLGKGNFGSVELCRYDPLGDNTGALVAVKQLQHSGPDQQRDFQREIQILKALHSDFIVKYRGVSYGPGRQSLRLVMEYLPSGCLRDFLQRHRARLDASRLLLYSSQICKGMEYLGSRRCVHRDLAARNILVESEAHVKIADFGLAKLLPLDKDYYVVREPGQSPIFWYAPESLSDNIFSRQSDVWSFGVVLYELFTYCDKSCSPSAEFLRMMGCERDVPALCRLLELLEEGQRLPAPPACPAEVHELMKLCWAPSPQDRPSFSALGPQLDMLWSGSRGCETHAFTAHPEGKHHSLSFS
In short: as §1

[16] = target: CAMK1G (Homo sapiens, UniProt Q96NX5); test: biochemical; set-up: KINOMEscan active site-directed competition binding assay (DiscoveRx), 456 kinases, per cent of control at 300 nM; details: read-out: Percent of Control (%)
In short: as §1

[17] = target: MAP3K4 (Homo sapiens, UniProt Q9Y6R4); test: biochemical; set-up: KINOMEscan active site-directed competition binding assay (DiscoveRx), 456 kinases, per cent of control at 300 nM; details: read-out: Percent of Control (%)
In short: as §1

[18] = target: PRKCQ (Homo sapiens, UniProt Q04759); test: biochemical; set-up: KINOMEscan active site-directed competition binding assay (DiscoveRx), 456 kinases, per cent of control at 300 nM; details: read-out: Percent of Control (%)
In short: as §1

[19] = target: PRKG1 (Homo sapiens, UniProt Q13976); test: biochemical; set-up: KINOMEscan active site-directed competition binding assay (DiscoveRx), 456 kinases, per cent of control at 300 nM; details: read-out: Percent of Control (%)
Sequence of PRKG1 (Q13976 whole entry): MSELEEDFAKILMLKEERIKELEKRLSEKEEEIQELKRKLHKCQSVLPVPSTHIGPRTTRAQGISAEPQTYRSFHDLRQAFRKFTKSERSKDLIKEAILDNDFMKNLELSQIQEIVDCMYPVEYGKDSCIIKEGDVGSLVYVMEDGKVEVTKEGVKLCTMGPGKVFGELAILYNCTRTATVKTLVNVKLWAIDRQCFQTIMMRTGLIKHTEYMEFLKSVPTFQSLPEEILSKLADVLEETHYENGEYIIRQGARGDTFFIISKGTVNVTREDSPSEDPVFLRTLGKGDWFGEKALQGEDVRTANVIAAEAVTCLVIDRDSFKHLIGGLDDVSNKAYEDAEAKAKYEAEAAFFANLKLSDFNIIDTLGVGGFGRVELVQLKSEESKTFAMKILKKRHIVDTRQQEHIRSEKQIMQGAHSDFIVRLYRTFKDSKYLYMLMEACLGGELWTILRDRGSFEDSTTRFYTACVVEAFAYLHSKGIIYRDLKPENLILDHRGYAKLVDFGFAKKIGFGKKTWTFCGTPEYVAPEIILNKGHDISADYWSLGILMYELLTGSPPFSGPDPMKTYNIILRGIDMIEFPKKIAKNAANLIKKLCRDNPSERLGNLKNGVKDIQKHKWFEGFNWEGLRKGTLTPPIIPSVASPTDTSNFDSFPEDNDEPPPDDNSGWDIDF
In short: as §1

[20] = target: AXL (Homo sapiens, UniProt P30530); test: biochemical; set-up: KINOMEscan active site-directed competition binding assay (DiscoveRx), 456 kinases, per cent of control at 300 nM; details: read-out: Percent of Control (%)
In short: as §1

[21] = target: NEK4 (Homo sapiens, UniProt P51957); test: biochemical; set-up: KINOMEscan active site-directed competition binding assay (DiscoveRx), 456 kinases, per cent of control at 300 nM; details: read-out: Percent of Control (%)
In short: as §1

[22] = target: CSNK1G1 (Homo sapiens, UniProt Q9HCP0); test: biochemical; set-up: KINOMEscan active site-directed competition binding assay (DiscoveRx), 456 kinases, per cent of control at 300 nM; details: read-out: Percent of Control (%)
In short: as §1

**Q.** How did the IC50 [1] turn out when `Cc1ncccc1Oc1sc(C(N)=O)c2c1-c1c(cnn1C)CC2` [T-474, 1-methyl-8-((2-methylpyridin-3-yl)oxy)-4,5-dihydro-1H-thieno[3,4-g]indazole-6-carboxamide] was run?
**A.** 1.6 nM

**Q.** What about the remaining binding at 0.3 µM [2] of the same compound?
**A.** 100%

**Q.** And the remaining binding at 0.3 µM [3]?
**A.** 88%

**Q.** What about the remaining binding at 0.3 µM [4] of the same compound?
**A.** 83%

**Q.** What about the remaining binding at 0.3 µM [5] of the same compound?
**A.** 100%

**Q.** What about the remaining binding at 0.3 µM [6] of the same compound?
**A.** 100%

**Q.** And the remaining binding at 0.3 µM [7]?
**A.** 100%

**Q.** What about the remaining binding at 0.3 µM [8] of the same compound?
**A.** 78%

**Q.** What about the remaining binding at 0.3 µM [9] of the same compound?
**A.** 98%

**Q.** And the remaining binding at 0.3 µM [10]?
**A.** 100%

**Q.** What about the remaining binding at 0.3 µM [11] of the same compound?
**A.** 100%

**Q.** What about the remaining binding at 0.3 µM [12] of the same compound?
**A.** 100%

**Q.** What about the remaining binding at 0.3 µM [13] of the same compound?
**A.** 100%

**Q.** What about the remaining binding at 0.3 µM [14] of the same compound?
**A.** 97%

**Q.** And the remaining binding at 0.3 µM [15]?
**A.** 72%

**Q.** And the remaining binding at 0.3 µM [16]?
**A.** 100%

**Q.** And the remaining binding at 0.3 µM [17]?
**A.** 72%

**Q.** What about the remaining binding at 0.3 µM [18] of the same compound?
**A.** 100%

**Q.** What about the remaining binding at 0.3 µM [19] of the same compound?
**A.** 100%

**Q.** What about the remaining binding at 0.3 µM [20] of the same compound?
**A.** 83%

**Q.** What about the remaining binding at 0.3 µM [21] of the same compound?
**A.** 100%

**Q.** What about the remaining binding at 0.3 µM [22] of the same compound?
**A.** 79%

**Q.** What does the source list for `O=C(/C=C/c1cnccc1-c1ccc(F)cc1)Nc1ccc(CCc2nnco2)cc1` [T-418, (2E)-3-(4-(4-fluorophenyl)pyridin-3-yl)-N-(4-(2-(1,3,4-oxadiazol-2-yl)ethyl)phenyl)acrylamide]?
**A.** remaining binding at 0.3 µM ([2]; sheet T-418): 100%; remaining binding at 0.3 µM ([3]; sheet T-418): 80%; remaining binding at 0.3 µM ([4]; sheet T-418): 89%; remaining binding at 0.3 µM ([5]; sheet T-418): 88%; remaining binding at 0.3 µM ([6]; sheet T-418): 100%; remaining binding at 0.3 µM ([7]; sheet T-418): 100%; remaining binding at 0.3 µM ([8]; sheet T-418): 95%; remaining binding at 0.3 µM ([9]; sheet T-418): 92%; remaining binding at 0.3 µM ([10]; sheet T-418): 94%; remaining binding at 0.3 µM ([11]; sheet T-418): 96%; remaining binding at 0.3 µM ([12]; sheet T-418): 100%; remaining binding at 0.3 µM ([13]; sheet T-418): 100%; remaining binding at 0.3 µM ([14]; sheet T-418): 71%; remaining binding at 0.3 µM ([15]; sheet T-418): 68%; remaining binding at 0.3 µM ([16]; sheet T-418): 100%; remaining binding at 0.3 µM ([17]; sheet T-418): 68%; remaining binding at 0.3 µM ([18]; sheet T-418): 83%; remaining binding at 0.3 µM ([19]; sheet T-418): 87%; remaining binding at 0.3 µM ([20]; sheet T-418): 73%; remaining binding at 0.3 µM ([21]; sheet T-418): 100%; remaining binding at 0.3 µM ([22]; sheet T-418): 97%
